Data taken from publication PMC5575254, “An allosteric ligand-binding site in the extracellular cap of K2P channels” (Nature Communications, 2017).

Key:
mice [1] = test: Open field test; assay type: in vivo, Male C57BL/6 mice; details: chronic i.p. administration 10 days
Method: (§1) Male C57BL/6 mice, aged 8 weeks (weighing 18–20 g) were used for acute and chronic drug administration and behavioral tests. The mice were housed four per cage under a 12-h light–dark cycle. Mice were raised under stable conditions with food and water ad libitum. All animal studies and experimental procedures were approved by the Animal Care Committees of the Shanghai Institute of Materia Medica, Chinese Academy of Sciences, and experiments were carried out in accordance with EU Directive 2010/63/EU on the protection of animals used for scientific purposes. […] The mice were removed to a sound-attenuating testing room 3–4 h before testing. The behavioral tests were carried out 30 min and 24 h after acute and chronic drugs administration, respectively.
(§2) The apparatus was made of opaque Plexiglas (50 cm × 50 cm) and placed in a room with sound proof. A camera was positioned above the apparatus to monitor the animal behaviors. The mice were randomly placed into the center of the sheet following 30 min drugs administration and their behaviors in the open field arena were recorded for 10 min using the camera. […] Locomotor activity and exploratory behavior were measured in the open field test and each animal was placed individually at the center for a 10 min session. The total distance moved and the number of rearing was measured in this experiment. […]

mice [2] = test: Acute administration behavioral tests; assay type: in vivo, Male C57BL/6 mice; details: single i.p. injection, tests 30 min after administration
Method: as §1, with “The behavioral tests were carried out 30 min and 24 h after acute and chronic drugs administration, respectively.” left out
as §2, with “A camera was positioned above the apparatus to monitor the animal behaviors.” left out
The mice were performed under normal light. […] The duration of immobility defined as floating or remaining motionless was assessed. […]

TREK-1 channel = target: T1, TREK-1 channel (Homo sapiens, UniProt O95069); test: Whole-cell voltage clamp of CHO cells transiently transfected with TREK-1; assay type: cell-based
T1 construct: expressed in transfected cells; host or cells: CHO cells, transient transfection
T1 sequence (O95069 1-411 isoform O95069-2): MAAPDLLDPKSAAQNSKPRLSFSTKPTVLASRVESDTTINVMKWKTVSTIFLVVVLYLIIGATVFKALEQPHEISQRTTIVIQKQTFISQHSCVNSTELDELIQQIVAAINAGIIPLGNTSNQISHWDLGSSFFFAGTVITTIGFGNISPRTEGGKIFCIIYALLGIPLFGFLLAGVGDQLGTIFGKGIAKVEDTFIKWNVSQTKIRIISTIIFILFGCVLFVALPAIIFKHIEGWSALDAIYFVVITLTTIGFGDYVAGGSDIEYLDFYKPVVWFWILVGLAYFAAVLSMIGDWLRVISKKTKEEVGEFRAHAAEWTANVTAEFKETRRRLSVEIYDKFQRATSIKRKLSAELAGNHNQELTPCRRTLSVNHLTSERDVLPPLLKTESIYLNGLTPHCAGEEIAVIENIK
From the text: cDNA of the human TREK-1, TREK-2 and TRAAK channels were subcloned into the pEGFPN1 expression vector (Invitrogen), respectively. Mutations were introduced into TREK-1 or TRAAK by PCR using the QuickChange XL sitedirected mutagenesis kit (Agilent Technologies) and were subsequently confirmed by DNA sequencing.
Chinese hamster ovary (CHO) cells were provided by the Cell Bank of Chinese Academy of Sciences (Shanghai, China). CHO cells were maintained in DMEM/F12 (Gibco) supplemented with 10% fetal bovine serum (Gibco) and 100 μg ml^−1 penicillin-streptomycin (Cellgro) in a humidified incubator at 37 °C (5% CO2). For electrophysiology experiments, cells plated in 35 mm tissue culture dishes (Corning Incorporated) were transiently transfected with the plasmids using PolyJet™ reagent (SignaGen) according to the manufacturer’s instructions. Primers used in this study are listed in Supplementary Table 4.
All electrophysiological recordings were obtained using patch-clamp recordings in two different configurations: (1) whole cell for macroscopic current dose–response curves; and (2) outside-out and inside-out for macroscopic currents recordings.
All patch-clamp recordings were conducted 36–96 h after transfection with an Axopatch-200B amplifier (Molecular Devices) at room temperature (23–25 °C). The microelectrodes fashioned from 1.5 mm thin-walled borosilicate glass with filament were pulled from Flaming/Brown type micropipette puller (P-97; SUTTER INSTRUMENT) with the resistances of 3–7 MΩ (whole cell) or 7–15 MΩ (outside-out) when filled with a solution containing (in mM): 140 KCl, 2 MgCl2, 10 EGTA, 1 CaCl2, 10 HEPES (pH 7.3, adjusted with KOH). External solution contained (in mM): 150 NaCl, 5 KCl, 0.5 CaCl2, 1.2 MgCl2, 10 HEPES (pH 7.3, adjusted with NaOH). The current signals were filtered at 1 kHz and digitized at a 10 kHz sampling frequency by using DigiData 1440 A.
Data of whole-cell voltage clamp experiments were fitted using doseResp function. The half inhibition concentrations were derived from fits of the dose–response curves to the function:1 I/I0=A1+A2-A1/1+10^logx0-xP, where I 0 and I are current amplitudes before and after application of inhibitors; A 1 and A 2 are constants between 0 and 1; x is the concentration of inhibitor; x o is the concentration when 50% inhibition was reached (IC50), P is the Hill constant.

Structure (SMILES): CS(=O)(=O)N(CC(=O)N1CCc2ccccc2C1)c1ccc(Cl)cc1 [TKDC, N-(4-cholorphenyl)-N-(2-(3,4-dihydrosioquinolin-2(1H)-yl)-2-oxoethyl)methanesulfonamide]
- movement into the central area in the open field test (mice [1]): more likely to move into the central area
- total distance traveled in the open field test (mice [1]; among groups): no obvious difference
- antidepressant-like effect in the acute treatment (mice [2]): fast antidepressant-like effect
- effect on TREK-1 current (TREK-1 channel; perfusion with 10 μM): pronounced decreases in current
- IC50 (TREK-1 channel; whole-cell, CHO cells, WT TREK-1, mean ± s.e.m, read-out: half-maximal inhibition concentration (IC50), TREK-1): 4.9 ± 0.6 µM
